Tested on: Express spring wheat
Test: Field trial plots with glyphosate on Express spring wheat; shikimic acid in whole above ground plant by water extraction and HPLC
Format: in vivo
Protocol: Field trial plots with glyphosate on Express spring wheat were established at three treatment levels, untreated control, 4 oz formulated/acre, and 14 oz formulated/acre. Field site studies were conducted in eastern Washington, near Kennewick, Wash. There were buffer zones around each treat level and control plot. The whole above ground plant was harvested at time zero, 5, 10, 15, and 20 days after application. The samples were cooled immediately and frozen within one hour. The samples were received from the field and stored in the freezer at <−10 C. At the time of application plants were 8-10 inches tall, after 20 days the control plants were 20-24 inches and beginning to head out.
Plant tissue was placed in an open container and dried at ca. 70 C overnight (14 to 16 hrs). Each sample was ground to pass through a 20 mesh screen. The ground sample was placed in a glass jar. Sealed samples may be stored at ≦−10 C for several months (the longest time tested). Approximately 150 mg of dry ground sample weight was placed into a screw cap bottle, 30 mL of DI water was added, and the bottle was capped and placed on a shaker overnight (14 to 16 hrs) at a minimum of 50 rpm. Extracts were filtered through a Whatman GF/A filter. For quantification, an aliquot was filtered (0.45 μm disposable) into an HPLC auto-sampler vial.
HPLC analysis was performed on a Perkin-Elmer ISS 200. Instrument conditions were as follows: column 250×4.6 mm ALTEX Ultrasphere 5 μm ODS (or equivalent);mobile phase (isocratic) 50 mM KH2PO4 solution adjusted to pH 2.4; flow rate 2 mL/min, detector 214 nm. Calibration curves consisted of 1, 5, 10, 50, 100 and 200 μg/mL standards, r^2 values were ≧0.998. Retention time was ca. 2.0 min.

For `O=C(O)CNCP(=O)(O)O` [glyphosate], the “shikimic acid level, factor above normal” value (higher treat rate 14 oz formulated/acre, day-5) was 6, the “shikimic acid level, factor above normal” value (higher treat rate 14 oz formulated/acre, day-10) was 10 and the “shikimic acid level relative to normal” value (higher treat rate 14 oz formulated/acre, through the study period of 20 days) was “remains elevated”. For the same compound, the “shikimic acid level relative to normal” value (low treat rate 4 oz formulated/acre, day 20) was “within normal levels”, the “shikimic acid level, factor above normal” value (low treat rate 4 oz formulated/acre, day-5 sampling) was 4 and the “shikimic acid level, factor above normal” value (low treat rate 4 oz formulated/acre, day-10) was 2. For the same compound, the “shikimic acid level relative to normal” value (low treat rate 4 oz formulated/acre, day-15) was “nearly within normal range”.
